What follows are compounds tested on NCI-H358(KRAS^G12C mutation) cells (assay: Cell assay of antiproliferative activity (Celltiter-Glo, 5 days) against NCI-H358 cells). Settings: 5 days incubation.
Type: cell-based
Description: Cell assay of antiproliferative activity of compounds against NCI-H358(KRAS^G12C mutation) and A549(KRAS^G12S mutation) cells.
40 μl phosphate buffer was added to the outer wells of the 384 microplate, and 40 μl cell suspension to be tested was added to the other wells. Then the microplate was incubated in a carbon dioxide incubator overnight.
The compounds to be tested were gradiently diluted, each compound was performed 10 concentration gradients (diluted from 50 μM to 0.003 μM) and added 100 nL to the corresponding wells in the microplate. After addition, 40 μl of phosphate buffer was added to each well in rows A and P and columns 1 and 24, and then the microplate was incubated in a carbon dioxide incubator for 5 days.
20 μL of Promega Celltiter-Glo reagent was added to each well of the microplate, and then the luminescence signal was stabilized by oscillating at room temperature for 10 min. Then PekinElmer Envision multi-label analyzer was used to read.
Finally, GraphPad Prism software was used to calculate the IC50 value of the compound and the fitting curve was drawn.
Anti-proliferative activity of the compounds of the present invention against NCI-H358(KRAS^G12C mutation) and A549(KRAS^G12S mutation) cells were shown in Table 1.

SMILES	IC50 [nM]
C=CC(=O)N1CCN(c2nc(OCC3(CN(C)C)CC3)nc3c2CC(C)N(c2cccc4cccc(Cl)c24)C3)CC1CC#N (single isomer, unassigned) [Example 29A, 2-(1-acroloyl-4-(7-(8-chloronaphthalen-1-yl)-2-((1-((dimethylamino)methyl)cyclopropyl)methoxyl)-6-methyl-5,6,7,8-tetrahydropyrido [3,4-d]pyrimidin-4-yl)piperazin-2-yl) acetonitrile]	360
C=CC(=O)N1CCN(c2nc(OCC3(CNC)CC3)nc3c2CCN(c2cccc4cccc(Cl)c24)C3)CC1CC#N (stereo not shown) [Example 26, 2-(1-acroloyl-4-(7-(8-chloronaphthalen-1-yl)-2-((1-((methylamino)methyl)cyclopropyl)methoxy)-5,6,7,8-tetrahydropyrido[3,4-d]pyrimidin-4-yl)piperazin-2-yl) acetonitrile]	62
C=C(F)C(=O)N1CCN(c2nc(OCC3(C(C)N(C)C)CC3)nc3c2CCN(c2cccc4cccc(Cl)c24)C3)C[C@@H]1CC#N (stereo partly drawn) [Example 53A, 2-((2S)-4-(7-(8-chloronaphthalen-1-yl)-2-(1-(1-((dimethylamino)ethyl)cyclopropyl)methoxy)-5,6,7,8-tetrahydropyrido[3,4-d]pyrimidin-4-yl)-1-(2-fluoroacroloyl)piperazin-2-yl) acetonitrile]	1400
C=C(F)C(=O)N1CCN(c2nc(OCC3(C(C)N(C)C)CC3)nc3c2CCN(c2cccc4cccc(Cl)c24)C3)C[C@@H]1CC#N (stereo partly drawn) [Example 47B, 2-((2S)-4-(7-(8-chloronaphthalen-1-yl)-2-((1-(1-(dimethylamino)ethyl)cyclopropyl)methoxy)-5,6,7,8-tetrahydropyrido[3,4-d]pyrimidin-4-yl)-1-(2-fluoroacroloyl)piperazin-2-yl) acetonitrile]	71
C=CC(=O)N1CCN(c2nc(OCCN(C)C3(C)CCC3)nc3c2CCN(c2cccc4cccc(Cl)c24)C3)CC1CC#N (stereo not shown) [Example 23, 2-(1-acroloyl-4-(7-(8-chloronaphthalen-1-yl)-2-(2-(methyl(1-methylcyclobutyl)amino)ethoxy)-5,6,7,8-tetrahydropyrido[3,4-d]pyrimidin-4-yl)piperazin-2-yl) acetonitrile]	13
C=C(F)C(=O)N1CCN(c2nc(OCC3(C(C)N(C)C)CC3)nc3c2CCN(c2cccc4cccc(Cl)c24)C3)C[C@@H]1CC#N (stereo partly drawn) [Example 47A, 2-((2S)-4-(7-(8-chloronaphthalen-1-yl)-2-((1-(1-(dimethylamino)ethyl)cyclopropyl)methoxy)-5,6,7,8-tetrahydropyrido[3,4-d]pyrimidin-4-yl)-1-(2-fluoroacroloyl)piperazin-2-yl) acetonitrile]	100

Same assay, conditions: Homo sapiens, NCI-H358, 120 h, 5 days incubation

IC50 [nM]	SMILES
1400	C=CC(=O)N1CCN(c2nc(OCC3(CN(C)C)CC3)nc3c2CCN(c2cccc4cccc(Cl)c24)C3)CC1C(F)(F)F (stereo not shown) [Example 41, 1-(-4-(7-(8-chloronaphthalen-1-yl)-2-((1-((dimethylamino)methyl)cyclopropyl)methoxyl)-5,6,7,8-tetrahydropyrido[3,4-d]pyrimidin-4-yl)-2-(trifluoromethyl)piperazin-1-yl)prop-2-ene-1-one]
830	C=CC(=O)N1CC2CCC1CN2c1nc(OCC2(CN(C)C)CC2)nc2c1CCN(c1cccc3cccc(Cl)c13)C2 (stereo not shown) [Example 43, 1-(5-(7-(8-chloronaphthalen-1-yl)-2-((1-((dimethylamino)methyl)cyclopropyl)methoxyl)-5,6,7,8-tetrahydropyrido[3,4-d]pyrimidin-4-yl)-2,5-diazabicyclo[2.2.2]octane-2-yl)prop-2-ene-1-one]
59	C=C(F)C(=O)N1CCN(c2nc(OCC3(CN(C)CCOC)CC3)nc3c2CCN(c2cccc4cccc(Cl)c24)C3)C[C@@H]1CC#N [Example 69]
110	C=C(F)C(=O)N1CCN(c2nc(OCC3(CN(C)C(C)C)CC3)nc3c2CCN(c2cccc4ccc(F)c(Cl)c24)C3)C[C@@H]1CC#N [Example 61, (S)-2-(4-(7-(8-chloro-7-fluoronaphthalen-1-yl)-2-((1-((isopropyl(methyl)amino)methyl)cyclopropyl)methoxy)-5,6,7,8-tetrahydropyrido [3,4-d]pyrimidin-4-yl)-1-(2-fluoroacroloyl)piperazin-2-yl) acetonitrile]
180	C=C(F)C(=O)N1CCN(c2nc(OCC3(CN4CC(F)C4)CC3)nc3c2CCN(c2cccc4ccc(F)cc24)C3)C[C@@H]1CC#N [Example 66]
51	C=C(F)C(=O)N1CCN(c2nc(OCC3(CN4CC(C)C4)CC3)nc3c2CCN(c2cccc4ccc(F)c(Cl)c24)C3)C[C@@H]1CC#N [Example 67, (S)-2-(4-(7-(8-chloro-7-fluoronaphthalen-1-yl)-2-((1-((3-methylazetidin-1-yl)methyl)cyclopropyl)methoxy)-5,6,7,8-tetrahydropyrido[3,4-d]pyrimidin-4-yl)-1-(2-fluoroacroloyl)piperazin-2-yl) acetonitrile]
870	C=C(F)C(=O)N1CCN(c2nc(OCCN(C)C34CC(C3)C4)nc3c2CCN(c2cccc4cccc(Cl)c24)C3)C[C@@H]1CC#N [Example 55]
61	C=C(F)C(=O)N1CCN(c2nc(OCC3(CN(C)C(C)C)CC3)nc3c2CCN(c2cccc4cccc(Cl)c24)C3)C[C@@H]1CC#N [Example 56, (S)-2-(4-(7-(8-chloronaphthalen-1-yl)-2-((1-((isopropyl(methyl)amino)methyl)cyclopropyl)methoxy)-5,6,7,8-tetrahydropyrido[3,4-d]pyrimidin-4-yl)-1-(2-fluoroacroloyl)piperazin-2-yl) acetonitrile]
< 100	C=CC(=O)N1CCN(c2nc(OC[C@@H](C)N(C)C3CCC3)nc3c2CCN(c2cccc4cccc(C)c24)C3)CC1CC#N (stereo partly drawn) [Example 92, 2-(1-acroloyl-4-(2-((R)-2-(cyclobutyl(methyl)amino)propoxy)-7-(8-methylnaphthalen-1-yl)-5,6,7,8-tetrahydropyrido[3,4-d]pyrimidin-4-yl)piperazin-2-yl) acetonitrile]
250	[2H]C([2H])([2H])N(CC1(COc2nc3c(c(N4CCN(C(=O)C(=C)F)[C@@H](CC#N)C4)n2)CCN(c2c(C)ccc4[nH]ncc24)C3)CC1)C([2H])([2H])[2H] [Example 36]
65	C=C(F)C(=O)N1CCN(c2nc(OCC3(CN4CCC4)CC3)nc3c2CCN(c2cccc4ccc(F)c(Cl)c24)C3)C[C@@H]1CC#N [Example 58, (S)-2-(4-(2-((1-(azetidin-1-ylmethyl)cyclopropyl)methoxy)-7-(8-chloro-7-fluoronaphthalen-1-yl)-5,6,7,8-tetrahydropyrido[3,4-d]pyrimidin-4-yl)-1-(2-fluoroacroloyl)piperazin-2-yl) acetonitrile]
86	C=C(F)C(=O)N1CCN(c2nc(OCC3(CN4CC(O)C4)CC3)nc3c2CCN(c2cccc4ccc(F)c(Cl)c24)C3)C[C@@H]1CC#N [Example 68, (S)-2-(4-(7-(8-chloro-7-fluoronaphthalen-1-yl)-2-((1-((3-hydroxyazetidin-1-yl)methyl)cyclopropyl)methoxy)-5,6,7,8-tetrahydropyrido [3,4-d]pyrimidin-4-yl)-1-(2-fluoroacroloyl)piperazin-2-yl) acetonitrile]
6260	C=CC(=O)N1CCN(c2nc(OCCN(C)CC3CC3)nc3c2CCN(c2cccc(F)c2C(F)(F)F)C3)CC1 [Example 95]
47	C=C(F)C(=O)N1CCN(c2nc(OCC3(CN(C)CC)CC3)nc3c2CCN(c2cccc4cccc(Cl)c24)C3)C[C@@H]1CC#N [Example 54, (S)-2-(4-(7-(8-chloronaphthalen-1-yl)-2-((1-((ethyl (methyl)amino)methyl)cyclopropyl)methoxy)-5,6,7,8-tetrahydropyrido[3,4-d]pyrimidin-4-yl)-1-(2-fluoroacroloyl)piperazin-2-yl) acetonitrile]
37	C=C(F)C(=O)N1CCN(c2nc(OCC3(COC)CN(C)C3)nc3c2CCN(c2cccc4cccc(Cl)c24)C3)C[C@@H]1CC#N [Example 46]
49	[2H]C([2H])([2H])N(CC1(COc2nc3c(c(N4CCN(C(=O)C(=C)F)[C@@H](CC#N)C4)n2)CCN(c2cccc4cccc(Cl)c24)C3)CC1)C([2H])([2H])[2H] [Example 45]
310	C=C(F)C(=O)N1CCN(c2nc(OCC3(CN(C)C)CC3)nc3c2CCN(c2c(C)ccc4[nH]ncc24)C3)C[C@@H]1CC#N [Example 35]
5500	C=CC(=O)N1CC2CC1CN2c1nc(OCC2(CN(C)C)CC2)nc2c1CCN(c1cccc3cccc(Cl)c13)C2 (stereo not shown) [Example 42, 1-(5-(7-(8-chloronaphthalen-1-yl)-2-((1-((dimethylamino)methyl)cyclopropyl)methoxyl)-5,6,7,8-tetrahydropyrido[3,4-d]pyrimidin-4-yl)-2,5-diazabicyclo[2.2.1]heptane-2-yl)prop-2-ene-1-one]
2500	C=CC(=O)N1CCN(c2nc(OCC3(CN(C)C)CC3)nc3c2CCN(c2cccc4cccc(Cl)c24)C3)CC12CC2 [Example 39, 1-(7-(7-(8-chloronaphthalen-1-yl)-2-((1-((dimethylamino)methyl)cyclopropyl)methoxyl)-5,6,7,8-tetrahydropyrido[3,4-d]pyrimidin-4-yl)-4,7-diazaspiro[2.5]octane-4-yl)prop-2-ene-1-one]

— patent US11459327B1, “Cycloalkyl and hetero-cycloalkyl inhibitors, preparation methods therefor, and use thereof” (Suzhou Zelgen Biopharmaceuticals Co., Ltd., priority 2019, dated 2022)
